# Source: patent US10562863B2, “Heterobifunctional linker” (THE GOVERNORS OF THE UNIVERSITY OF ALBERTA, priority 2016, dated 2020)
# Target: T1, branched-chain amino acid-binding protein LivF (Escherichia coli, UniProt P0AD96)
# T1 construct: inferred from the pET15b vector and Ni-NTA purification; made in house; host or cells: E. coli BL21
# Test: Competitive lateral flow assay, LivF test band
# Set-up: species or system E. coli
# Conditions: free Leu 0.5 and 2 mg/ml; 1M urea; citrate 2 mg/ml
# Description: We generated a useful metabolite sensor using a combination of a lateral flow assay (LFA), a metabolite-L1-AuNP conjugate (Leucine) and metabolite-specific protein. […] In our assay, the branched-chain amino acid-binding protein LivF35 was loaded onto nitrocellulose strips as the detection protein (“Test band”) and as the “Control band” the glutamate/aspartate binding protein Gltl36 was used, since the gold nanoparticles are stabilized with glutamate on their surface and that can be detected by Gltl as flow control. Leucine-decorated gold nanoparticles were loaded at the end of the strip in solution, with or without competing free leucine and the flow assay was performed.
# To prepare the LFA strips, lug of each protein (from a 0.5 ug/ul solution in 50 mM phosphate buffer, pH 7.5) was loaded onto FF80 nitrocellulose strips as a 0.5 cm line. 20 ul of a suspension of metabolite-coated AuNPs (3 mg/mL) was loaded onto the end of the membrane strips and allowed to flow through via capillary action. Bands showing the captured gold nanoparticles were documented with an electronic flatbed scanner (Canon Canoscan 5600).
# T1 sequence (P0AD96 24-367): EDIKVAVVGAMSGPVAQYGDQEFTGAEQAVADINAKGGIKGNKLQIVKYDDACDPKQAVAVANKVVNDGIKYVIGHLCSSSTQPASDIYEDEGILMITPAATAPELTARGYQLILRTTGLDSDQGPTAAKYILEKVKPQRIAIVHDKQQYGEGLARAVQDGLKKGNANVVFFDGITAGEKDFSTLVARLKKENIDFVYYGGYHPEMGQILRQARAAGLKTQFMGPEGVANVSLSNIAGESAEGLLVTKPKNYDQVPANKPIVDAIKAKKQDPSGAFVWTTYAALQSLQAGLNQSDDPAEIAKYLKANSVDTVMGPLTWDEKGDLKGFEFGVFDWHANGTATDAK
row,SMILES,Effect of free metabolite on LivF detection of leucine-coated AuNP
1,"CC(C)C[C@H](N)C(=O)O [free leucine, leucine]",abrogated
2,O=C(O)CC(O)(CC(=O)O)C(=O)O [citrate],not hampered
3,NC(N)=O [urea],not hampered
